According to the supplement of paper PMC10307832:

Key:
Assay in all cases: relative viability (nuclei count vs DMSO), 5 days (fraction); higher = more cells survive
[1] = compound: O=C(C[C@H]1NCCC[C@@H]1O)Cn1cnc2cc(Br)c(Cl)cc2c1=O (racemic) [Halofuginone] + C[C@]1(O)C[C@@H](c2nc(-c3ccc4ccc(-c5ccccc5)nc4c3)c3c(N)nccn32)C1 [Linsitinib] (partner 1 µM)
Outline: (§1)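 Relative viability is defined as nuclei in treated wells over nuclei in vehicle wells. Duplicate plates were run and medians reported. Lung cancer cell lines in 1536-well plates were dosed by pin tool one day after seeding, with one drug or with a fixed anchor-drug dose plus five library-drug doses (not always all listed) in √10 steps, and nuclei were counted after 5 days.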

[2] = compound: O=C(C[C@H]1NCCC[C@@H]1O)Cn1cnc2cc(Br)c(Cl)cc2c1=O (racemic) [Halofuginone] + CC1(C)CCC(c2ccc(Cl)cc2)=C(CN2CCN(c3ccc(C(=O)NS(=O)(=O)c4ccc(N[C@H](CCN5CCOCC5)CSc5ccccc5)c(S(=O)(=O)C(F)(F)F)c4)cc3)CC2)C1 [Navitoclax] (partner 0.5 µM)
Outline: as §1

Decitabine + Lapatinib = compound: Nc1ncn([C@H]2C[C@H](O)[C@@H](CO)O2)c(=O)n1 [Decitabine] + CS(=O)(=O)CCNCc1ccc(-c2ccc3ncnc(Nc4ccc(OCc5cccc(F)c5)c(Cl)c4)c3c2)o1 [Lapatinib] (partner 2 µM)
Outline: as §1

Cediranib + Crizotinib = compound: COc1cc2c(Oc3ccc4[nH]c(C)cc4c3F)ncnc2cc1OCCCN1CCCC1 [Cediranib] + C[C@@H](Oc1cc(-c2cnn(C3CCNCC3)c2)cnc1N)c1c(Cl)ccc(F)c1Cl [Crizotinib] (partner 1 µM)
Outline: as §1

Row | Cell Line | relative viability ([1]; first compound 0.001 µM) | relative viability ([1]; first compound 0.003162 µM) | relative viability ([1]; first compound 0.01 µM) | relative viability ([1]; first compound 0.03162 µM) | relative viability ([1]; first compound 0.1 µM) | relative viability ([2]; first compound 0.001 µM) | relative viability ([2]; first compound 0.003162 µM) | relative viability ([2]; first compound 0.01 µM) | relative viability ([2]; first compound 0.03162 µM) | relative viability ([2]; first compound 0.1 µM) | relative viability (Decitabine + Lapatinib; first compound 0.04 µM) | relative viability (Decitabine + Lapatinib; first compound 0.1265 µM) | relative viability (Decitabine + Lapatinib; first compound 0.4 µM) | relative viability (Decitabine + Lapatinib; first compound 1.265 µM) | relative viability (Decitabine + Lapatinib; first compound 4 µM) | relative viability (Cediranib + Crizotinib; first compound 0.04 µM) | relative viability (Cediranib + Crizotinib; first compound 0.1265 µM) | relative viability (Cediranib + Crizotinib; first compound 0.4 µM) | relative viability (Cediranib + Crizotinib; first compound 1.265 µM) | relative viability (Cediranib + Crizotinib; first compound 4 µM)
1 | 201T | 1.07 | 1.08 | 1.03 | 0.967 | 0.724 | 1.22 | 1.15 | 1.24 | 1.13 | 1.28 | 1.04 | 1.04 | 1.13 | 0.627 | 0.993 | 1.05 | 1.18 | 0.989 | 1.01 | 1.01
2 | A549 | 0.653 | 0.556 | 0.612 | 0.559 | 0.286 | 1.33 | 1.27 | 1.02 | 0.676 | 0.0879 | 0.898 | 0.843 | 0.49 | 0.305 | 0.19 | 0.805 | 0.768 | 0.679 | 0.773 | 0.605
3 | A-427 | 1.18 | 1.13 | 1.02 | 1.09 | 1.08 | 1.08 | 0.984 | 0.903 | 0.898 | 0.946 | 0.806 | 0.745 | 0.318 | 0.333 | 0.229 | 0.946 |  | 0.829 | 0.866 | 0.884
4 | ABC-1 | 0.921 | 0.947 | 0.763 | 0.625 | 0.961 |  |  |  |  |  | 1.27 | 1.26 | 1.16 | 0.861 | 0.981 | 1.39 | 1.17 | 1.34 |  | 0.999
5 | BEN | 0.965 | 0.912 | 1.03 | 0.841 | 0.352 | 0.0684 | 0.132 | 0.0701 | 0.0526 | 0.0549 | 0.775 | 0.678 | 0.358 | 0.45 | 0.348 | 1.19 | 0.662 | 0.971 | 0.824 | 0.816
6 | CAL-12T | 0.842 | 0.838 | 0.659 | 0.866 | 0.649 | 1.54 | 1.37 | 1.24 | 0.974 | 0.565 | 0.607 | 0.698 | 0.264 | 0.504 | 0.375 | 0.855 | 0.639 | 0.661 | 0.638 | 0.62
7 | COR-L23 | 0.973 | 0.91 | 0.972 | 0.876 | 0.102 | 1.03 | 1.1 | 1.03 | 0.976 | 0.126 | 0.698 | 0.51 | 0.459 | 0.28 | 0.23 | 0.696 | 0.749 | 0.654 | 0.703 | 0.68
8 | ChaGo-K-1 |  |  |  |  |  | 0.88 | 0.587 | 1.01 | 0.859 | 0.975 |  |  |  |  |  | 1.08 |  | 1.08 | 1.14 | 0.874
9 | LCLC-103H | 1.12 | 1.48 | 1.04 | 1.09 | 1.01 |  |  |  |  |  |  |  |  |  |  | 0.995 | 1.09 | 1.02 | 1.07 | 1.07
10 | NCI-H358 | 0.779 | 0.707 | 0.629 | 0.273 | 0.19 |  |  |  |  |  | 0.468 | 0.512 | 0.388 | 0.284 | 0.334 | 0.546 | 0.641 | 0.637 | 0.567 | 0.428
11 | NCI-H441 | 0.6 | 0.651 | 0.525 | 0.561 | 0.353 | 0.607 | 0.674 | 0.562 | 0.586 | 0.34 |  |  |  |  |  | 0.78 | 0.76 | 1.02 | 0.504 | 0.735
12 | NCI-H650 | 1.03 | 0.924 | 0.877 | 0.811 | 0.457 |  |  |  |  |  | 0.786 | 0.532 | 0.339 | 0.356 | 0.292 | 0.7 | 0.757 | 0.612 | 0.835 | 0.639
13 | NCI-H661 | 0.677 | 0.589 | 0.537 | 0.627 | 0.39 |  |  |  |  |  | 0.465 | 0.455 | 0.382 | 0.297 | 0.269 | 0.964 | 0.922 | 0.935 | 1.02 | 1.04
14 | NCI-H1395 | 1.17 | 1.62 | 1.2 | 0.961 | 0.776 | 1.15 | 1.44 | 1.07 | 1.16 | 1.26 | 0.819 | 0.675 | 0.571 | 0.528 | 0.821 |  |  |  |  | 
15 | NCI-H1563 | 1.3 | 1.3 | 0.963 | 0.636 | 0.603 |  |  |  |  |  | 0.922 | 1.02 | 0.87 | 1.07 | 0.8 | 0.919 | 0.866 | 0.854 | 0.833 | 0.894
16 | NCI-H1650 |  |  |  |  |  | 1.37 | 1.23 | 1.18 | 0.815 | 0.166 | 0.595 | 0.649 | 0.217 | 0.494 | 0.372 | 1.29 | 1.05 | 0.794 | 0.953 | 0.879
17 | NCI-H1793 | 0.985 | 0.962 | 0.822 | 0.883 | 0.398 | 0.409 | 0.367 | 0.406 | 0.396 | 0.195 | 0.543 | 0.604 | 0.489 | 0.562 | 0.291 |  |  |  |  | 
18 | NCI-H2170 |  |  |  |  |  | 0.631 | 0.724 | 0.595 | 0.699 | 0.387 | 0.281 | 0.267 | 0.268 | 0.251 | 0.249 | 1.45 | 1.42 | 1.05 | 1.13 | 1.37
